# PubChem BioAssay (NCI)
#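 These data come from cells grown in 96-well plates and exposed to compound for 48 hours at five concentrations. TGI denotes the concentration required for complete inhibition of growth.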
# Columns and labels:
# Assay in all cases: NCI-60 cell line screen, 48 h
# ACHN renal = system: ACHN renal
# BT-549 breast = system: BT-549 breast
# CCRF-CEM leukemia = system: CCRF-CEM leukemia
# EKVX NSCLC = system: EKVX NSCLC
# HL-60(TB) leukemia = system: HL-60(TB) leukemia
# HOP-62 NSCLC = system: HOP-62 NSCLC
# HT29 colon = system: HT29 colon
# KM12 colon = system: KM12 colon
# MALME-3M melanoma = system: MALME-3M melanoma
# MDA-MB-231 breast = system: MDA-MB-231 breast
# NCI/ADR-RES ovarian = system: NCI/ADR-RES ovarian
# OVCAR-3 ovarian = system: OVCAR-3 ovarian
# OVCAR-4 ovarian = system: OVCAR-4 ovarian
# PC-3 prostate = system: PC-3 prostate
# SF-268 CNS = system: SF-268 CNS
# SF-539 CNS = system: SF-539 CNS
# SK-MEL-2 melanoma = system: SK-MEL-2 melanoma
# TK-10 renal = system: TK-10 renal
# UACC-62 melanoma = system: UACC-62 melanoma
SMILES,TGI (ACHN renal),TGI (BT-549 breast),TGI (CCRF-CEM leukemia),TGI (EKVX NSCLC),TGI (HL-60(TB) leukemia),TGI (HOP-62 NSCLC),TGI (HT29 colon),TGI (KM12 colon),TGI (MALME-3M melanoma),TGI (MDA-MB-231 breast),TGI (NCI/ADR-RES ovarian),TGI (OVCAR-3 ovarian),TGI (OVCAR-4 ovarian),TGI (PC-3 prostate),TGI (SF-268 CNS),TGI (SF-539 CNS),TGI (SK-MEL-2 melanoma),TGI (TK-10 renal),TGI (UACC-62 melanoma)
COc1cccc(Nc2nc(NS(=O)(=O)c3cc(C)c(Cl)cc3S)n[nH]2)c1,> 100 µM,> 100 µM,> 100 µM,> 100 µM,> 100 µM,> 100 µM,> 100 µM,> 100 µM,> 100 µM,> 100 µM,> 100 µM,> 100 µM,> 100 µM,> 100 µM,> 100 µM,> 100 µM,> 100 µM,> 100 µM,> 100 µM
C=C1C(=O)O[C@@H]2[C@H]1C[C@H](I)[C@@]1(C)CC[C@H](O1)[C@](C)(I)CCCC(C)[C@@H]2O (some centres undefined),3.71 µM,20.9 µM,1.59 µM,22.9 µM,4.54 µM,35.2 µM,4.61 µM,23.7 µM,7.33 µM,16.3 µM,9.84 µM,8.09 µM,17.6 µM,24.6 µM,27.2 µM,4.25 µM,28.6 µM,3.57 µM,16.4 µM
Nc1nc2c(c(=O)[nH]1)NC(CCNc1ccc(C(=O)O)cc1)CN2 (centres undefined),> 100 µM,> 100 µM,> 100 µM,> 100 µM,> 100 µM,> 100 µM,> 100 µM,> 100 µM,> 100 µM,> 100 µM,> 100 µM,> 100 µM,> 100 µM,> 100 µM,> 100 µM,> 100 µM,> 100 µM,> 100 µM,> 100 µM
O=C(O)Cc1ccc(Oc2nc3ccccc3nc2-c2ccccc2)cc1,> 100 µM,> 100 µM,> 100 µM,79.5 µM,> 100 µM,> 100 µM,> 100 µM,> 100 µM,> 100 µM,> 100 µM,> 100 µM,65.6 µM,> 100 µM,> 100 µM,> 100 µM,> 100 µM,> 100 µM,> 100 µM,75.7 µM
COc1cccc(/C=C2/S/C(=N/Nc3nc(C)c(C(C)=O)s3)NC2=O)c1O,51.6 µM,97 µM,50.7 µM,84.4 µM,46 µM,> 100 µM,> 100 µM,> 100 µM,88.2 µM,44.8 µM,> 100 µM,60.3 µM,> 100 µM,70.4 µM,> 100 µM,> 100 µM,48 µM,94.2 µM,43.9 µM
COc1ccc2c(C(=O)c3c(C)n(CCN4CCOCC4)c4ccccc34)cccc2c1,> 100 µM,98.1 µM,27.1 µM,> 100 µM,23.4 µM,> 100 µM,64 µM,68.2 µM,80.7 µM,80.2 µM,55.9 µM,29.6 µM,> 100 µM,96.6 µM,55.4 µM,> 100 µM,55.9 µM,> 100 µM,> 100 µM
